Like-named read-outs stand apart in the source and are kept apart here. Blank lines part the entries; values can stand above or below the compound they belong to.
How the values were obtained:
[1] = system: pRB (S780) in MCF7-PC1 human palbociclib resistant ER+ breast cancer xenograft; assay: Pharmacodynamic effect (pRB) in MCF7-PC1 palbociclib resistant ER+ breast cancer xenograft model; format: in vivo, mice; settings: 3 days dosing, Western blot
Method: MCF7-PC1 cells were generated as described in Example 70.
Palbociclib was dosed orally once daily.

[2] = system: pRB (S780) in OVCAR3 human ovarian cancer xenograft; assay: Pharmacodynamic effect (pRB) in OVCAR3 xenograft model; format: in vivo, mice; settings: 3 days dosing, Western blot
Method: 15 Million OVCAR3 human ovarian cells were implanted subcutaneously in the right flank of female CB17 SCID mice. […] Palbociclib was dosed orally once daily.

SKOV3 cells = assay: Cell proliferation CyQUANT assay, SKOV3; format: cell-based; settings: Homo sapiens, SK-OV-3, 168 h; CyQUANT cell counts, 7 days
Method: (§1) An imaging-based assay was used to investigate changes in cell number in OVCAR3 cells (CCNE1-amplified ovarian cancer cell line) and SKOV3 cells (non-amplified ovarian cancer cell line) treated with test compounds.
(§2) Cells were plated in 384 well plates (Perkin-Elmer 6057300) in RPMI-1640/10% FBS/1× L-Glu at 500 cells per well in 30 μL and incubated with test compound at 37° C. and 5% CO2 for 7 days. Cells were then stained using the CyQuant Direct Cell Proliferation Assay Kit (Thermo Cat #C7026) in accordance with the kit protocol. The stained cells were imaged using an Operetta high content imager to generate cell counts and IC50 values were calculated relative to DMSO controls.

[3] = system: pRB (S780) in CTG-3298 human CDK4/6 resistant ER+ breast cancer xenograft; assay: Pharmacodynamic effect (pRB) in CTG-3298 xenograft model; settings: 3 days dosing, Western blot
Method: A study was conducted to evaluate the in vivo pharmacodynamic response of monotherapy with a CDK2 inhibitor and combination therapy with a CDK2 inhibitor and palbociclib in a CTG-3298 human CDK4/6 resistant ER+ breast cancer xenograft model.
CTG-3298 fragments were implanted adjacent to the #3 mammory fat pad of female NSG mice. […] Mice were treated for 3 days with vehicle (0.5% HPMC/0.1% Tween 80), palbociclib at 50 mg/kg, test compound at 30 or 60 mg/kg, or the combination of test compound and palbociclib. Test compound was dosed orally twice daily 10 hours apart on day one and two and a single dose in the morning on day 3. Palbociclib was dosed orally once daily. When administered in combination with test compound, palbociclib was dosed 4 hours after the morning dose of test compound on days one and two and 15 minutes after the morning dose of test compound on day 3. The time course of sample collection was as follows: (i) the test compound at 30 mg/kg groups with and without palbociclib treatment were collected at 2, 4 and 8 hours; (ii) all other groups were collected at 2, 8, and 24 hours. pRB (S780) was evaluated by western blotting.

[4] = system: pHH3 in T47D P1 human palbociclib resistant ER+ breast cancer xenograft; assay: Pharmacodynamic effect in T47D P1 palbociclib resistant ER+ breast xenograft model; settings: 3 days dosing, Western blot
Method: A study was conducted to evaluate the in vivo pharmacodynamic response of monotherapy with a CDK2 inhibitor and combination therapy with a CDK2 inhibitor and palbociclib in a T47D P1 human palbociclib resistant ER+ breast cancer xenograft model.
T47D P1 cells were generated to be resistant to palbociclib through chronic treatment with palbociclib over the course of about three months with increasing concentrations up to 3 μM. The resulting cells (T47D P1) were then banked for use in subsequent experiments. T47D P1 cells were grown in phenol red free RPMI 1640 supplemented with 10% fetal bovine serum and 3 μM palbociclib. Cells were harvested with 0.25% trypsin and resuspended in PBS/phenol red free Matrigel (50/50).
10 Million T47D P1 cells were implanted orthotopically into the #3 mammary fat pad of female NSG mice. 0.5 mg 90 day release 17B-estradiol pellets from Innovative Research of America were implanted subcutaneously three days prior to cell implant. […] The time course of sample collection was as follows: (i) the test compound at 30 mg/kg groups with and without palbociclib treatment were collected at 2, 4 and 8 hours; and (ii) all other groups were collected at 2, 8 and 24 hours. pHH3 was evaluated by western blotting.

[5] = system: pRB (S780) in CTG-3283 human CDK4/6 resistant ER+ breast cancer xenograft; assay: Pharmacodynamic effect (pRB) in CTG-3283 xenograft model; settings: 3 days dosing, Western blot
Method: A study was conducted to evaluate the in vivo pharmacodynamic response of monotherapy with a CDK2 inhibitor and combination therapy with a CDK2 inhibitor and palbociclib in a CTG-3283 human CDK4/6 resistant ER+ breast cancer xenograft model.
CTG-3283 fragments were implanted adjacent to the #3 mammory fat pad of female NSG mice. […] Mice were treated for 3 days with vehicle (0.5% HPMC/0.1% Tween 80), palbociclib at 50 mg/kg, test compound at 30 or 60 mg/kg, or the combination of test compound and palbociclib. Test compound was dosed orally twice daily 10 hours apart on day one and two and a single dose in the morning on day 3. Palbociclib was dosed orally once daily. When administered in combination with test compound, palbociclib was dosed 4 hours after the morning dose of test compound on days one and two and 15 minutes after the morning dose of test compound on day 3. The time course of sample collection was as follows: (i) the test compound at 30 mg/kg groups with and without palbociclib treatment were collected at 2, 4, and 8 hours; (ii) all other groups were collected at 2, 8, and 24 hours. pRB (S780) was evaluated by western blotting.

[6] = system: CTG-3283 human CDK4/6 resistant ER+ breast cancer xenograft; assay: Anti-tumor effect in CTG-3283 CDK4/6 resistant ER+ breast cancer xenograft model; format: in vivo, mice; settings: for % INHIBITION (end of dosing): 28 days
Method: CTG-3283 ER+ breast xenograft tumors were harvested from donor mice and cut into fragments approximately 50 mm^3 in volume and then reimplanted adjacent to the #3 mammary fat pad.
CTG-3283 ER+ Breast PDX fragments were implanted orthotopically adjacent to the #3 mammary fat pad using a 10-gauge trocar in female NSG mice. […] Palbociclib was dosed orally once daily.

OVCAR3 cells [7] = assay: Effect on cell cycle in OVCAR3 cell line (flow cytometry); format: cell-based, human; settings: 20 to 24 hours, 0.03, 0.1, 0.3, 1, and 3 μM
Method: Compounds were tested in the CCNE1-amplified ovarian cell line OVCAR3 to assess their effect on cell cycle phases G1 and S and potential off-target effects on cell cycle phases G2 and M.
OVCAR3 cells were seeded at 60,000 cells per well in 24 well plates, 4 wells per sample, in RPMI with 10% Fetal bovine serum. Test compounds were diluted in 96 well plates in dimethyl sulfoxide (DMSO) and then added to the wells containing the cells. The 24 well plates were placed in an incubator maintained at 37° C. and 5% CO2 and incubated for 20 to 24 hours. The next day an EdU assay was performed following the manufacturer's protocol (Thermo Fisher, C10425 EdU Alexa Fluor 488). Antibody staining was carried out using PE Mouse Anti-Cleaved PARP (BD Biosciences Catalog No. 552933) and 4′,6-diamidino-2-phenylindole (DAPI). Cells were then analyzed by flow cytometry.

OVCAR3 cells [8] = assay: Cell proliferation CyQUANT assay, OVCAR3; format: cell-based; settings: Homo sapiens, OVCAR-3, 168 h; CyQUANT cell counts, 7 days
Method: as §1, §2

MCF-7 cells = assay: Cellular proliferation EdU assay, MCF-7; format: cell-based; settings: Homo sapiens, MCF7, 48 h, EdU assay, two days; read-out: MCF-7 IC50
Outline: (§3)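 MCF-7 (800 cells/well) and OVCAR3 (1200 cells/well) in RPMI with 10% FBS exposed to compounds for two days at 37 °C.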

[9] = system: CTG-3298 human CDK4/6 resistant ER+ breast cancer xenograft; assay: Anti-tumor effect in CTG-3298 CDK4/6 resistant ER+ breast cancer xenograft model; format: in vivo, mice; settings: for % INHIBITION (end of dosing): 28 days
Method: CTG-3298 ER+ breast xenograft tumors were harvested from donor mice and cut into fragments approximately 50 mm^3 in volume and then reimplanted adjacent to the #3 mammary fat pad.
CTG-3298 ER+ Breast PDX fragments were implanted orthotopically adjacent to the #3 mammary fat pad using a 10-gauge trocar in female NSG mice. […] Palbociclib was dosed orally once daily.

[10] = system: POLR2A Ser2 phosphorylation (CDK9); assay: POLR2A Ser2 phosphorylation imaging assay in MCF-7 cells; format: cell-based; settings: Homo sapiens, MCF7, 2 h, read-out: POLR2A Ser2 phosphorylation IC50
Outline: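 MCF-7 cells were fixed, permeabilised and immunostained for POLR2A phospho-Ser2, then imaged by high-content microscopy. Levels were normalised to controls and IC50 values derived.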

[11] = system: OVCAR3 human ovarian cancer xenograft; assay: Anti-tumor effect in CCNE1 amplified ovarian xenograft model OVCAR3; format: in vivo, mice; settings: for % INHIBITION: 28 days
Method: 15 Million OVCAR3 human ovarian cells were implanted subcutaneously in the right flank of female CB17 SCID mice. Mice were randomized into groups of 8 when average tumor volume reached approximately 160 mm^3. […] Palbociclib was dosed orally once daily.

[12] = target: 379 non-CDK kinase (or non-CDK kinase-complex) targets; assay: Kinase profiling (SelectScreen, ThermoFisher); format: biochemical; settings: compared with Compound 6
Source text: Test compounds were profiled against a broad panel of kinases at ThermoFisher Scientific using the SelectScreen Kinase Profiling Services. Each kinase assay used one of the following assay technology protocols: • 1) Z-LYTE™ Screening Protocol and Assay Conditions (Revised 23 Jan. 2018 version) available at http://assets.thermofisher.com/TFS-Assets/BID/Methods-&-Protocols/20180123_SSBK_Customer_Protocol_and_Assay_Conditions.pdf; • 2) Adapta™ Screening Protocol and Assay Conditions (Revised 23 Jan. 2018 version) available at http://assets.thermofisher.com/TFS-Assets/BID/Methods-&-Protocols/20180123_SSBK_Adapta_Customer_Protocol_and_Assay_Conditions.pdf; or • 3) LanthaScreen™ Eu Kinase Binding Assay Screening Protocol and Assay Conditions (Revised 23 Jan. 2018 version) available at http://assets.thermofisher.com/TFS-Assets/BID/Methods-&-Protocols/20180123_SSBK_LanthaScreen_Binding_Customer_Protocol_and_Assay_Co nditions.pdf.

OVCAR3 cells [13] = assay: Cellular proliferation EdU assay, OVCAR3; format: cell-based, human; settings: Homo sapiens, OVCAR-3, 48 h, EdU assay, two days; read-out: OVCAR3 IC50
Outline: as §3

[14] = Aqueous thermodynamic solubility, shake-flask; format: physicochemical; settings: aqueous phosphate buffer, 25 °C, pH 7.4, aqueous buffer, thermodynamic from solid, phosphate buffer 0.1 M, pH 7.4, 24 hours
Outline: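 Dried compound (after DMSO evaporation) was equilibrated in 0.1 M phosphate buffer pH 7.4 with stirring for 24 h at 25° C. Undissolved material was removed by double centrifugation, and the supernatant was diluted in water and quantified by UPLC/MS/MS.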

[15] = system: 97 targets (GPCRs, ion channels, transporters, enzymes, kinases); assay: Secondary pharmacology panel (Eurofins CEREP); settings: compared with Compound 6
Method: Secondary pharmacology assays were performed at Eurofins CEREP using standard experimental techniques. Specifically, radioligand binding assays were used to assess the ability of test compounds to interact with G-protein coupled receptors (GPCRs), ion channels, and transmembrane transporters. Assays measuring substrate turnover or phosphorylation by isolated proteins were used for enzyme and kinase targets, allowing direct determination of the mode of action of the tested compounds.

OVCAR3 cells [16] = assay: Senescence β-galactosidase assay, OVCAR3; format: cell-based, human; settings: 5 days, single agent
Method: Cells were then stained with a fluorescent dye to detect senescence-associated β-galactosidase (CellEvent Senescence Green detection kit, Thermo #C10850), diluted 1:1000 in the provided buffer, and incubated at 37° C. for 2 hours without CO2 in accordance with the manufacturer's instructions. DNA staining was performed using Hoechst 33342, diluted 1:2500 in PBS, for 15 minutes at room temperature, followed by two washes with PBS. Sample imaging was performed on a PerkinElmer Operetta CLS at lOX magnification to detect Hoechst 33342 (nuclei) and Alexa488 (senescence stain). Image analysis was performed in Harmony 4.1 software (PerkinElmer) to identify cells based on nuclear staining. Mean Alexa488 fluorescence intensity was measured within each cell, and the average was taken across all cells observed within each well. […] Data fitting was performed using Genedata Screener (Genedata AG) and combination effect was assessed using the highest single agent (HSA) model.

[17] = Compound 6 at 30 mg/kg orally twice daily
[18] = Compound 6 at 60 mg/kg orally twice daily
[19] = Palbociclib at 50 mg/kg orally once daily

SMILES: CCNS(=O)(=O)N1CC[C@H](Nc2nc(N[C@@H](CC)[C@@H](C)O)nc3c2ncn3CC)C1 [Compound 6, (S)—N-ethyl-3-((9-ethyl-2-(((2R,3S)-2-hydroxypentan-3-yl)amino)-9H-purin-6-yl)amino)pyrrolidine-1-sulfonamide]
pRB levels [1]: time dependent inhibition of pRB
pRB levels [2]: time dependent inhibition of pRB
IC50 (SKOV3 cells): 1.97 µM
pRB levels [3]: dose dependent inhibition of pRB
pHH3 levels [4]: time dependent inhibition of pHH3
pRB levels [5]: dose dependent inhibition of pRB
tumor growth inhibition ([6]; CTG-3283 xenograft, Compound 6 at 30 and 60 mg/kg monotherapy or combination with palbociclib): lower inhibition of tumor growth
% INHIBITION (end of dosing) [6, 17]: 28%
% INHIBITION (end of dosing) [6, 18]: 21%
effect on cell cycle phase (OVCAR3 cells [7]): increased the population of cells in the G0 and G1 phases
IC50 (OVCAR3 cells [8]): 0.077 µM
IC50 (MCF-7 cells): 0.278 µM
% INHIBITION (end of dosing) [9, 17]: 82%
% INHIBITION (end of dosing) [9, 18]: 87%
durability of response ([9]; Compound 6 at 60 mg/kg without palbociclib): more durable response
IC50 [10]: > 19.3 µM
% INHIBITION [11, 17]: 31%
% INHIBITION ([11]; Compound 6 at 100 mg/kg orally twice daily): 94%
% INHIBITION ([11]; Compound 6 at 150 mg/kg orally twice daily): >100%
durability on monitoring for regrowth ([11]; Compound 6 at 150 mg/kg, compared to Compound 6 at 100 mg/kg group): showed increased durability

SMILES: CC(C)[C@H](CO)Nc1nc(N[C@H]2CCN(S(C)(=O)=O)C2)c2ncn(C(C)C)c2n1 [Compound 20, (R)-2-((9-isopropyl-6-(((S)-1-(methylsulfonyl)pyrrolidin-3-yl)amino)-9H-purin-2-yl)amino)-3-methylbutan-1-ol]
IC50 (SKOV3 cells): 2.52 µM
effect on cell cycle phase (OVCAR3 cells [7]): increased the population of cells in the G0 and G1 phases
IC50 (OVCAR3 cells [8]): 0.188 µM
IC50 (MCF-7 cells): 0.665 µM
kinase inhibition profile [12]: broadly similar kinase inhibition profiles to Compound 6
IC50 (OVCAR3 cells [13]): 0.224 µM
IC50 [10]: > 30 µM
activity and tolerability in xenograft model ([11]; OVCAR3 xenograft): active and well tolerated

solubility at 24 h [14]: > 1000 µM
IC50 (MCF-7 cells): 1.4 µM
IC50 (OVCAR3 cells [13]): 0.441 µM
IC50 ([10]; MCF-7 cells, 2 hours): > 30 µM
SMILES: CC[C@H](Nc1nc(N[C@H]2CCN(S(=O)(=O)c3ccn[nH]3)C2)c2ncn(CC)c2n1)[C@@H](C)O [Example 62, (2R,3S)-3-((6-(((S)-1-((1H-pyrazol-5-yl)sulfonyl)pyrrolidin-3-yl)amino)-9-ethyl-9H-purin-2-yl)amino)pentan-2-ol]
secondary pharmacology profile [15]: broadly similar secondary pharmacology to Compound 6
kinase inhibition profile [12]: broadly similar kinase inhibition profiles to Compound 6

SMILES: CC(=O)c1c(C)c2cnc(Nc3ccc(N4CCNCC4)cn3)nc2n(C2CCCC2)c1=O [Palbociclib, reference compound]
induction of senescence (OVCAR3 cells [16]): no effect was observed
% INHIBITION (end of dosing) [6, 19]: 46%
% INHIBITION (end of dosing) [9, 19]: 49%
% INHIBITION [11, 19]: 9%

Source: patent US20250197425A1, “2,6,9-TRISUBSTITUTED PURINES” (ASTRAZENECA AB, priority 2022, published 2025)
